Measurements as given in US7084323B1, “Stress-protected transgenic plants” (The General Hospital Corporation, priority 1996, dated 2006).

Legend:
Type in all cases: cell-based
HVA1 promoter [1] = experiment: HVA1-LUC expression with constitutively active or null PP2C effector in maize leaf protoplasts; conditions: ABA treatment
Description: To further support the idea that ATCDPK1 and ATCDPK1a are positive regulators in plant stress signal transduction, the effect of a specific and constitutively active Arabidopsis protein phosphatase 2C (PP2C) capable of abolishing ABA responses (Leung et al., Science 264:1448, 1994; Meyer et al., Science 264:1452, 1994; Armstrong et al., Proc. Natl. Acad. Sci. USA 92:9520, 1995) was examined as follows. Maize leaf protoplasts were electroporated with HVA1-LUC alone or with the effectors as indicated. […] The experiments with the constitutively active PP2C or the null PP2C were performed with two concentrations of plasmid DNA (+, 20 μg and ++, 60 μg) (FIG. 4C). LUC and GUS assays were performed with 2% of the cell lysates as described previously by Sheen (EMBO J. 12:3497, 1993; Jefferson, Plant Mol. Biol. Rep. 5:387, 1987; and Luehrsen et al., Meth. Enz. 216:397, 1992). Relative LUC activities from duplicated samples are shown. The experiment was repeated three times with similar results (FIG. 4C).

[2] = tested on: stress-inducible HVA1 promoter; experiment: HVA1-SGFP reporter expression in maize leaf protoplasts under stress/ABA treatment
Description: Responses to multiple stress treatments were monitored using green-fluorescent protein (GFP) as a vital reporter (Chiu et al. Curr. Biol. 6:225, 1996), using a single cell maize leaf protoplast system (Sheen, EMBO J 12:3497, 1993). A chimeric gene was generated by fusing the stress-inducible CDPK HVA1 promoter (Straub et al., Plant Mol. Biol. 26:617, 1994) to a synthetic GFP sequence (HVA1-SGFP) (Chiu et al. Curr. Biol. 6:225, 1996). The barley HVA1 promoter was obtained by PCR using barley genomic DNA and two primers: 5′[…]-3′ (SEQ ID NO: 17) and 5′-[…]-3′ (SEQ ID NO: 18). The HVA1 promoter and the SGFP were fused at the ATG NcoI site. The CDPK HVA1 gene has been reported to be activated by multiple stress signals in vegetative tissues (Straub et al., Plant Mol. Biol. 26:617, 1994). […]
Maize leaf protoplasts were electroporated with the plasmid DNA carrying HVA1-SGFP and divided (10^5 cells/ml per sample) for various treatments: constant light (15 μEm^−2S^−1) at 23° C. for sixteen hours (Control), 0° C. for four hours followed by twelve hours at 23° C. […] About 10^5 protoplasts from each treatment were observed using a fluorescence microscope as described by Chiu et al. (Curr. Biol. 6:225, 1996). […] About 50% of the protoplasts, showing green/yellow fluorescence after the induction, were transiently transformed. […]

[3] = tested on: stress-inducible HVA1 promoter; experiment: HVA1-SGFP expression in maize leaf protoplasts treated with Ca2+ ionophores; conditions: 1 mM Ca2+ alone or with 100 nM ionophore in incubation medium
Description: The role of Ca^2+ as a second messenger in multiple stress responses was also studied. The effects of increased intracellular Ca^2+ on HVA1-SGFP expression in maize leaf protoplasts using Ca^2+ ionophore was examined using standard methods as described below (Knight et al., Nature 352:524, 1991; Schroeder and Thuleau, Plant Cell 3:555, 1991; Braam, Proc. Natl. Acad. Sci. U.S.A. 89:3213, 1992; McAinsh et al., Plant Cell 4:1113, 1992; Assmann, Ann. Rev. Cell Biol. 9:345, 1993; Poovaiah and Reddy, Crit. Rev. Plant Sci. 12:185, 1993; Trewavas and Knight, Plant Mol. Biol. 26:1329, 1994; Ward and Schroeder, Plant Cell 6:669, 1994; Bethke et al., in Plant Hormones, Davies, Ed., (Kluwer Academic 1995) pp. 298–317; Bush, Ann. Rev. Plant Physiol. Plant Mol. Biol. 46:95, 1995; Monroy and Dhindsa, Plant Cell 7:32, 1995; and Knight et al., Plant Cell 8:489, 1996).
Maize leaf protoplasts transfected with HVA1-SGFP (HVA) or UBI-SGFP (UBI) were treated with 1 mM Ca^2+, 1 mM Ca^2+/100 nM A23187, and 1 mM Ca^2+/100 nM ionomycin, respectively designated “C,” “A,” and “I” in FIG. 2. UBI-SGFP was constructed by inserting the UBI promoter from pAHC27 (Christensen et al., Plant Mol. Biol. 18:675, 1992) into the SGFP vector (Chiu et al., Curr. Biol. 6:225, 1996). […] About 10^5 protoplasts from each treatment were observed using a fluorescence microscope (Chiu et al., Curr. Biol. 6:225, 1996). […]

HVA1 promoter [4] = experiment: HVA1-LUC reporter co-expression with constitutive PK constructs in maize leaf protoplasts; conditions: co-electroporated constitutive (truncated) PK construct, without ABA
Experimental: For quantitating the effect of various constitutive PKs on stress signaling, another chimeric gene with the HVA1 promoter and the luciferase coding sequence (Leuhrsen et al., Meth. Enz. 216:397, 1992) (HVA1-LUC) was generated. Co-expression experiments were performed by electroporating the reporter (HVA1-LUC) and the effector (35SC4PSK-PK-HA) plasmids together into maize leaf protoplasts as follows.
Maize leaf protoplasts were transfected with HVA1-LUC alone and incubated without (FIG. 3E, “C”) or with 100 μM ABA (FIG. 3E, “A”). HVA1-LUC was also co-electroporated with the PK constructs (1–8) shown in FIG. 3C and FIG. 3D, and incubated without ABA (FIG. 3E, “1–8”). Relative LUC activities from duplicated samples are shown. About 2% of the cell lysates were used for LUC (Luehrsen et al., Meth. Enz. 216:397, 1992) and GUS assays (Sheen, EMBO J. 12:3497, 1993; and Jefferson, Plant Mol. Biol. Rep. 5:387, 1987). The experiment was repeated three times with similar results.

CC1=CC(=O)CC(C)(C)[C@@]1(O)/C=C/C(C)=C\C(=O)O [ABA, abscisic acid]
HVA1-LUC expression (HVA1 promoter [1]): activated
GFP expression from HVA1-SGFP ([2]; 1 μM ABA (data not shown)): visible
expression of GFP from HVA1-SGFP ([2]; 100 μM ABA for sixteen hours, fluorescence microscopy): enhanced

C[C@H](CCC(=O)O)C[C@H](C)C[C@H](C)C(=O)/C=C(\O)[C@H](C)C[C@H](C)C/C=C/[C@@H](C)[C@@H](O)[C@@H](C)[C@@H](O)C[C@@H]1CC[C@@](C)([C@H]2CC[C@@](C)([C@@H](C)O)O2)O1 [ionomycin]
expression of HVA1-GFP [3]: significantly increased

CNc1ccc2oc(C[C@H]3O[C@@]4(CC[C@H]3C)O[C@H]([C@H](C)C(=O)c3ccc[nH]3)[C@H](C)C[C@H]4C)nc2c1C(=O)O [A23187]
expression of HVA1-GFP [3]: significantly increased

B1: ATCDPK1a: truncated constitutively active Arabidopsis CDPK PK domain, SEQ ID NO: 2 (protein, listed as Arabidopsis thaliana)
chain: MANQTQISDKYILGRELGRGEFGITYLCTDRETREALACKSISKRKLRTAVDVEDVRREVTIMSTLPEHPNVVKLKATYEDNETVHLVMELCEGGELFGRIVARGHYTERAAATVARTIAEVVRMCHVNGVMHRDLKPENFLFANKKENSALKAIDFGLSVLFKPGERFTEIVGSPYYMAPEVLKRNYGPEVDVWSAGVILYILLCGVPPFWAETEQGVALAILRGVLDFKRDPWSQISESAKSLVKQMLEPDSTKRLTAQQVLDHPWIQNAKK
LUC expression controlled by the HVA1 promoter (HVA1 promoter [4]): specifically activate
